# Measurements published in patent US20120135965A1, “AMORPHOUS FOSAMPRENAVIR CALCIUM” (RANBAXY LABORATORIES LIMITED, priority 2009, published 2012).
# Like-named read-outs stand apart in the source and are kept apart here. Marks after values point to notes of the source that are not given here.
# How the values were obtained:
# [1] = Hygroscopicity according to European Pharmacopoeia 6.0; assay type: physicochemical; conditions: for Hygroscopicity, % increase in mass: 25 ± 1° C./80 ± 2% RH for 24 h, monocalcium salt
# [2] = Storage stability of the amorphous form followed by XRPD; assay type: physicochemical; conditions: 40±1° C. at 75±2% RH, two months
# Procedure: The XRPD of the samples were determined by using Panalytical X'Pert Pro X-Ray Powder Diffractometer in the range 3 to 40 degree 2 theta with a step size of 0.02 and under tube voltage and current of 45 Kv and 40 mA respectively. Copper radiation of wavelength 1.54 angstrom and Xceletor detector were used.
# Fosamprenavir calcium (5 g) was dissolved in methanol (125 ml) at 25° to 30° C. The solution was filtered and fed to a spray dryer (BUCHI, B-290) at feed pump RPM of 1% to 3%. The following parameters were controlled in the spray drying process: • Nozzle Diameter: 0.7 mm • Carrier gas: Nitrogen at 2.0 to 3.0 kg/cm^2 • Air inlet temperature: 80° to 85° C. • Outlet temperature: 35° to 55° C. • Type of atomizer: Two fluid nozzle • The solvent was evaporated at 80° to 85° C. by spray drying. The solid so obtained was collected from the spray dryer and further dried at 55° to 60° C. under vacuum (10 to 15 mmHg) for 10 to 12 hours to obtain the title compound having an XRPD pattern as depicted in FIG. 2.
# [3] = Aqueous solubility test according to United States Pharmacopeia 32; assay type: physicochemical; conditions: for Solubility (mg/ml of solvent) / Parts of solvent required per g of solute / solubility: aqueous; for Solubility (mg/ml of solvent) / solubility: by qualitative observation; for solubility: thermodynamic from solid, read-out: Solubility (mg/ml of solvent)
# [4] = Antimicrob. Agents Chemother., 2004, 48(3), 791-798; cited from earlier work
structure (smiles),measurement,setting,value
"CC(C)CN(C[C@@H](OP(=O)([O-])[O-])[C@H](Cc1ccccc1)NC(=O)O[C@H]1CCOC1)S(=O)(=O)c1ccc(N)cc1.[Ca+2] [(3S)-tetrahydrofuran-3-yl (1S ,2R)-3-[[(4-aminophenyl)sulfonyl](isobutyl)amino]-1-benzyl-2-(phosphonooxy)propylcarbamate monocalcium salt, reference compound]","Hygroscopicity, % increase in mass",[1]; listed as Crystalline form I,11.62%
"CC(C)CN(C[C@@H](OP(=O)([O-])[O-])[C@H](Cc1ccccc1)NC(=O)O[C@H]1CCOC1)S(=O)(=O)c1ccc(N)cc1.[Ca+2] [Amorphous fosamprenavir calcium, (3S)-tetrahydrofuran-3-yl (1S ,2R)-3-[[(4-aminophenyl)sulfonyl](isobutyl)amino]-1-benzyl-2-(phosphonooxy)propylcarbamate monocalcium salt]",Hygroscopicity in words,[1],essentially non-hygroscopic
same,"Hygroscopicity, % increase in mass",[1],17.5%
same,Change in XRPD pattern / conversion into crystalline form on storage,"[2]; listed as Example 2, monocalcium salt",no change in the XRPD pattern was observed
same,Change in XRPD pattern / conversion into crystalline form on storage,[2]; monocalcium salt,not converted into any crystalline form
same,Solubility (mg/ml of solvent),"[3]; pH 1.47, monocalcium salt",1.25 mg/mL
same,Parts of solvent required per g of solute,"[3]; pH 1.47, monocalcium salt",800 parts
same,Solubility (mg/ml of solvent),"[3]; pH 3.27, monocalcium salt",10 mg/mL
same,Parts of solvent required per g of solute,"[3]; pH 3.27, monocalcium salt",100 parts
same,Parts of solvent required per g of solute,"[3]; pH 4.11, monocalcium salt",150 parts
same,Solubility (mg/ml of solvent),"[3]; pH 5.02, monocalcium salt",6.7 mg/mL
same,Parts of solvent required per g of solute,"[3]; pH 5.02, monocalcium salt",150 parts
same,solubility,"[3]; pH 4.11, aqueous buffer, pH 4.11",6.7 mg/mL
same,solubility,"[3]; pH 6.27, aqueous buffer, pH 6.27",0.1 mg/mL
same,Volume of aqueous solution required for dissolving about 1 g,[3]; pH of about 3 to about 5.5,not more than 200 ml
same,Solubility compared with crystalline form I of fosamprenavir calcium,[3]; relevant physiological pH range,superior
"CC(C)CN(C[C@@H](OP(=O)([O-])[O-])[C@H](Cc1ccccc1)NC(=O)O[C@H]1CCOC1)S(=O)(=O)c1ccc(N)cc1.[Ca+2] [Crystalline form I of fosamprenavir calcium] [(3S)-tetrahydrofuran-3-yl (1S ,2R)-3-[[(4-aminophenyl)sulfonyl](isobutyl)amino]-1-benzyl-2-(phosphonooxy)propylcarbamate monocalcium salt, reference compound]",Solubility (mg/ml of solvent),[3]; pH 1.47,0.5 mg/mL
same,Parts of solvent required per g of solute,"[3]; pH 1.47, monocalcium salt",2100 parts
same,Solubility (mg/ml of solvent),"[3]; pH 3.27, monocalcium salt",2.5 mg/mL
same,Parts of solvent required per g of solute,"[3]; pH 3.27, monocalcium salt",400 parts
same,Solubility (mg/ml of solvent),"[3]; pH 4.11, monocalcium salt",4.0 mg/mL
same,Parts of solvent required per g of solute,"[3]; pH 4.11, monocalcium salt",250 parts
same,Solubility (mg/ml of solvent),"[3]; pH 5.02, monocalcium salt",3.3 mg/mL
same,Parts of solvent required per g of solute,"[3]; pH 5.02, monocalcium salt",300 parts
same,Parts of solvent required per g of solute,"[3]; pH 6.27, monocalcium salt","> 10,000** parts"
"CC(C)CN(C[C@@H](OP(=O)([O-])[O-])[C@H](Cc1ccccc1)NC(=O)O[C@H]1CCOC1)S(=O)(=O)c1ccc(N)cc1.[Ca+2] [calcium salt, (3S)-tetrahydrofuran-3-yl (1S ,2R)-3-[[(4-aminophenyl)sulfonyl](isobutyl)amino]-1-benzyl-2-(phosphonooxy)propylcarbamate monocalcium salt]","Solubility over the relevant physiological pH range, compared among forms",[4],reduced solubility
